One assay relates to TOV21G. The assay can be described thus: Cell proliferation (CyQUANT) TOV21G. The class given is cell-based. Conditions: Homo sapiens, 168 h, 7 days, read-out: Anti-proliferation assay: IC50 (nM) [Cell Line: TOV21G]. The method, then: (§1) Cancer cell lines, namely, OVCAR3, TOV21G were seeded onto 96 well cell culture plates at a density of 2500, 1000 or 3000 cells/well, respectively and cultured overnight. Cells treated with test compounds at 3-fold dose titration for 7 days at maximum final DMSO concentration of 0.01%. The CyQUANT® Cell Proliferation Assay, a highly sensitive fluorescence-based method for quantifying cells and assessing cell proliferation and cytotoxicity was employed, following manufacturer's procedure (ThermnoFisher, Cataloge #C35012). Plates were scanned with a laser-based Acumen Cellistra instrument by TTP LabTech at Ex/Em 480/520 nm. % Inhibition is calculated based on DMSO control wells on the same plate (ie, DMSO wells have 100% growth and 0% growth inhibition).

The test system of another assay is OVCAR3. Nature of the assay: Cell proliferation (CyQUANT) OVCAR3. The class given is cell-based. Conditions: Homo sapiens, OVCAR-3, 168 h, OVCAR3, 7 days, read-out: Anti-proliferation assay: IC50 (nM) [Cell Line: OVCAR3]. As to the method:
as §1

The target in a further assay is GSK3β (Homo sapiens, UniProt P49841). The assay can be described thus: In vitro kinase TR-FRET assay GSK3β. Type of assay: biochemical. Conditions: enzyme 0.6 nM, ATP 7.6 μM. The method in brief: (§2)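 Enzymes at 3 nM (CDK2/CycA2), 0.6 nM (CDK2/CycE1), 0.3 nM (CDK1/cyclinB), 0.6 nM (GSK3β) with ATP at 27, 82, 56, 7.6 μM respectively, 50 nM ULight-4E-BP1 peptide, HEPES pH7.5; 10-point 3-fold dilutions. 1 h reaction at room temperature; Eu-anti-phospho-4E-BP1 TR-FRET (665/615 nm) read; IC50 from dose-response curves.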
GSK3β, sequence (P49841 whole entry, species assumed): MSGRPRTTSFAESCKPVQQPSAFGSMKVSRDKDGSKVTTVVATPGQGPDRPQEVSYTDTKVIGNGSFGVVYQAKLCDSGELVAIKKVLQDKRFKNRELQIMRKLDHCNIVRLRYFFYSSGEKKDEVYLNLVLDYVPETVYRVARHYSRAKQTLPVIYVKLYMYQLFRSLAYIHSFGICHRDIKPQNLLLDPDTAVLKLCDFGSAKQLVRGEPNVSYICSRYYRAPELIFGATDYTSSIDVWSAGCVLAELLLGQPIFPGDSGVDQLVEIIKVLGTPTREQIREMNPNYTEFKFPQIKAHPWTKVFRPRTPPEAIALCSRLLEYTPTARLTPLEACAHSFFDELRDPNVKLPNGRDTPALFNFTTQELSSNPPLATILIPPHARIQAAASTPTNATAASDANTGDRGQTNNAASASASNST
On the technique in general: TR-FRET usually uses a lanthanide donor and a delayed reading to cut background.

A further assay addresses CDK2/CycA2 (Homo sapiens, UniProt P24941). Nature of the assay: In vitro kinase TR-FRET assay CDK2/CycA2. Conditions: enzyme 3 nM, ATP 27 μM, read-out: CDK2 cyclinA2 activity assay: IC50. Type of assay: biochemical. An outline of the steps:
as §2

In another assay the target is CDK1/cyclinB (Homo sapiens, UniProt P06493). Nature of the assay: In vitro kinase TR-FRET assay CDK1/cyclinB. The note with it: enzyme 0.3 nM, ATP 56 μM. Type of assay: biochemical. An outline of the steps: as §2
CDK1/cyclinB, sequence (P06493 whole entry): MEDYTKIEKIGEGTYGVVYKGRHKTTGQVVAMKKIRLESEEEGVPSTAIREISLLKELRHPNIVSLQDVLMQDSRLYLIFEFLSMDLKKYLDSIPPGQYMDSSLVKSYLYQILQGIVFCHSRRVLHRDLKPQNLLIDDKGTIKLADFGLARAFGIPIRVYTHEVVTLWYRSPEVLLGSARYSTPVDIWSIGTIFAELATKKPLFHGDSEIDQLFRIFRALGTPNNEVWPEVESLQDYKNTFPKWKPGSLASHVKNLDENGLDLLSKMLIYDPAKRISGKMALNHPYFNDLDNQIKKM
CDK1/cyclinB, sequence (P14635 whole entry partner): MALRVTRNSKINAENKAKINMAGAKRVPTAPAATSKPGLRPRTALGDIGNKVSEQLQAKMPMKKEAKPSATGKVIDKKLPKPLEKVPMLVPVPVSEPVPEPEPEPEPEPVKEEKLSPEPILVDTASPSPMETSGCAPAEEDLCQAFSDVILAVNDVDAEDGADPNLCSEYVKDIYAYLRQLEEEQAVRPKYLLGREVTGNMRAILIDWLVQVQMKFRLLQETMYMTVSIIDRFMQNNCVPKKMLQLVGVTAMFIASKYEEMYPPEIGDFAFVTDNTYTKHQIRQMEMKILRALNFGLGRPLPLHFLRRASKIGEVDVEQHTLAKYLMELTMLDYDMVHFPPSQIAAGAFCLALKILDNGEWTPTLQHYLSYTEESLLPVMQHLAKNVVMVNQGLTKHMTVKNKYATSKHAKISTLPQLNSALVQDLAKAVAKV
Another assay deals with CDK2/CycE1 (Homo sapiens, UniProt P24941). The assay can be described thus: In vitro kinase TR-FRET assay CDK2/CycE1. Conditions: enzyme 0.6 nM, ATP 82 μM, read-out: CDK2 cyclinE1 activity assay: IC50. Type of assay: biochemical. An outline of the steps: as §2

Each structure is given as a SMILES string. A value given as a limit tells only on which side of the number the result lay.

Turning to `CC(C)NC(=O)O[C@@H]1CC[C@H](c2cc(Nc3ccc4c(c3)N(C)S(=O)(=O)C4)n[nH]2)C1` [Example 41, (1R,3S)-3-{5-[(1-methyl-2,2-dioxo-1,3-dihydro-2X^6-benzo[2,1-c][1,2]thiazol-6-yl)amino]-2H-pyrazol-3-yl}cyclopentyl (prop-2-ylamino)methanoate], the IC50 is not above 500 nM in the assay on TOV21G; not above 500 nM with OVCAR3; 0.5 to 1 µM on GSK3β; less than 0.05 µM on CDK2/CycA2; 0.05 to 0.5 µM against CDK1/cyclinB; less than 0.05 µM at CDK2/CycE1.

Consider `CC(C)NC(=O)O[C@@H]1CC[C@H](c2cc(Nc3ccc4c(c3)CS(=O)(=O)N4C)n[nH]2)C1` [Example 42, (1R,3S)-3-{5-[(1-methyl-2,2-dioxo-1,3-dihydro-2%6-benzo[c][1,2]thiazol-5-yl)amino]-2H-pyrazol-3-yl}cyclopentyl (prop-2-ylamino)methanoate], for which the IC50 with TOV21G is not above 500 nM; in the assay on OVCAR3, not above 500 nM; against GSK3β, 0.5 to 1 µM; on CDK2/CycA2, less than 0.05 µM; against CDK1/cyclinB it was 0.05 to 0.5 µM; at CDK2/CycE1, less than 0.05 µM.

On to `CC(C)NC(=O)O[C@@H]1CC[C@H](c2cc(Nc3ccc4c(c3)CS(=O)(=O)N4)n[nH]2)C1` [Example 45, (1R,3S)-3-{5-[(2,2-dioxo-1,3-dihydro-2λ6-benzo[c][1,2]thiazol-5-yl)amino]-2H-pyrazol-3-yl}cyclopentyl (prop-2-ylamino)methanoate], for which the IC50 with TOV21G is not below 1000 nM; in the assay on OVCAR3, not below 1000 nM; against GSK3β, more than 1 µM; at CDK2/CycA2, less than 0.05 µM; on CDK1/cyclinB it was less than 0.05 µM; on CDK2/CycE1, less than 0.05 µM.

On to `CC(C)NC(=O)O[C@@H]1CC[C@H](c2cc(Nc3cccc4c3CNS4(=O)=O)n[nH]2)C1` [Example 46, (1R,3S)-3-(3-((1,1-dioxido-2,3-dihydrobenzo[d]isothiazol-4-yl)amino)-1H-pyrazol-5-yl)cyclopentyl isopropylcarbamate], for which the IC50 in the assay with TOV21G is 500 to 1000 nM; with OVCAR3 it was not above 500 nM; against GSK3β it was 0.05 to 0.5 µM; on CDK2/CycA2 it was less than 0.05 µM; against CDK1/cyclinB, 0.05 to 0.5 µM; on CDK2/CycE1, less than 0.05 µM.

`CC(C)NC(=O)O[C@@H]1CC[C@H](c2cc(Nc3cccc4c3CN(C)S4(=O)=O)n[nH]2)C1` [Example 47, (1R,3S)-3-(3-((2-methyl-1,1-dioxido-2,3-dihydrobenzo[d]isothiazol-4-yl)amino)-1H-pyrazol-5-yl)cyclopentyl isopropylcarbamate]: the IC50 with TOV21G was not above 500 nM; in the assay with OVCAR3 it was not above 500 nM; against GSK3β, more than 1 µM; at CDK2/CycA2 it was less than 0.05 µM; on CDK1/cyclinB, 0.05 to 0.5 µM; at CDK2/CycE1, less than 0.05 µM.

Consider `CC(C)NC(=O)O[C@H]1CC[C@@H](c2cc(Nc3cccc4c3CCS4(=O)=O)n[nH]2)CC1` [Example 49, (1s,4s)-4-(3-((1,1-dioxido-2,3-dihydrobenzo[b]thiophen-4-yl)amino)-1H-pyrazol-5-yl)cyclohexyl isopropylcarbamate], for which the IC50 was 500 to 1000 nM in the assay with TOV21G; not above 500 nM with OVCAR3; more than 1 µM at GSK3β; less than 0.05 µM on CDK2/CycA2; 0.05 to 0.5 µM at CDK1/cyclinB; less than 0.05 µM on CDK2/CycE1.

As for `CC(C)NC(=O)O[C@@H]1CC[C@H](c2cc(Nc3ccc(F)c4c3CCS4(=O)=O)n[nH]2)C1` [Example 50, (1R,3S)-3-{5-[(7-fluoro-1,1-dioxo-2,3-dihydro-1λ^6-benzothiophen-4-yl)amino]-2H-pyrazol-3-yl}cyclopentyl (prop-2-ylamino)methanoate], the IC50 in the assay on TOV21G was not above 500 nM; in the assay on OVCAR3 it was not above 500 nM; against GSK3β it was 0.05 to 0.5 µM; on CDK2/CycA2, less than 0.05 µM; against CDK1/cyclinB, 0.05 to 0.5 µM; on CDK2/CycE1, less than 0.05 µM.

For the origin of these results see patent US20240246950A1, “Anilino-Pyrazole Derivatives, Compositions and Methods Thereof” (Ensem Therapeutics, priority 2022, published 2024).
